According to ChEMBL document CHEMBL4364295, “Discovery of a First-in-Class Receptor Interacting Protein 2 (RIP2) Kinase Specific Clinical Candidate, 2-((4-(Benzo[d]thiazol-5-ylamino)-6-(tert-butylsulfonyl)quinazolin-7-yl)oxy)ethyl Dihydrogen Phosphate, for the Treatment of Inflammatory Diseases” (J Med Chem, 2019):
Values belong to the compound of their own block, whether it stands above or below them.

How the values were obtained:
[1] = molecular target: Vascular endothelial growth factor receptor 2 (Homo sapiens) (UniProt P35968); test: Inhibition of human VEGFR2 at 1 uM using poly[Glu:Tyr] (4:1) as substrate in presence of [gamma-33P]ATP relative to control
[2] = AUC in Sprague-Dawley rat at 2 mg/kg, po by LC/MS/MS analysis; format: ADME, organism-based; conditions: in vivo
[3] = Clearance in Sprague-Dawley rat at 2 mg/kg, po or 0.5 mg/kg, iv by LC/MS/MS analysis; format: ADME, organism-based; conditions: in vivo
[4] = Terminal half life in Gottingen minipig at 1 mg/kg, po or 0.4 mg/kg, iv by LC/MS/MS analysis; format: ADME, organism-based, Sus scrofa; conditions: pig, in vivo, read-out: beta t1/2 (converted)
[5] = Passive permeability in MDCK cells; format: ADME, cell-based, Canis lupus familiaris; conditions: dog, read-out: permeability
Toll-like receptor 9 = molecular target: T1, Toll-like receptor 9 (Homo sapiens, UniProt Q9NR96); test: Inhibition of TLR9 in human monocytes assessed as reduction in CpG-ODN-induced IL8 production; format: cell-based
T1 sequence (Q9NR96 whole entry): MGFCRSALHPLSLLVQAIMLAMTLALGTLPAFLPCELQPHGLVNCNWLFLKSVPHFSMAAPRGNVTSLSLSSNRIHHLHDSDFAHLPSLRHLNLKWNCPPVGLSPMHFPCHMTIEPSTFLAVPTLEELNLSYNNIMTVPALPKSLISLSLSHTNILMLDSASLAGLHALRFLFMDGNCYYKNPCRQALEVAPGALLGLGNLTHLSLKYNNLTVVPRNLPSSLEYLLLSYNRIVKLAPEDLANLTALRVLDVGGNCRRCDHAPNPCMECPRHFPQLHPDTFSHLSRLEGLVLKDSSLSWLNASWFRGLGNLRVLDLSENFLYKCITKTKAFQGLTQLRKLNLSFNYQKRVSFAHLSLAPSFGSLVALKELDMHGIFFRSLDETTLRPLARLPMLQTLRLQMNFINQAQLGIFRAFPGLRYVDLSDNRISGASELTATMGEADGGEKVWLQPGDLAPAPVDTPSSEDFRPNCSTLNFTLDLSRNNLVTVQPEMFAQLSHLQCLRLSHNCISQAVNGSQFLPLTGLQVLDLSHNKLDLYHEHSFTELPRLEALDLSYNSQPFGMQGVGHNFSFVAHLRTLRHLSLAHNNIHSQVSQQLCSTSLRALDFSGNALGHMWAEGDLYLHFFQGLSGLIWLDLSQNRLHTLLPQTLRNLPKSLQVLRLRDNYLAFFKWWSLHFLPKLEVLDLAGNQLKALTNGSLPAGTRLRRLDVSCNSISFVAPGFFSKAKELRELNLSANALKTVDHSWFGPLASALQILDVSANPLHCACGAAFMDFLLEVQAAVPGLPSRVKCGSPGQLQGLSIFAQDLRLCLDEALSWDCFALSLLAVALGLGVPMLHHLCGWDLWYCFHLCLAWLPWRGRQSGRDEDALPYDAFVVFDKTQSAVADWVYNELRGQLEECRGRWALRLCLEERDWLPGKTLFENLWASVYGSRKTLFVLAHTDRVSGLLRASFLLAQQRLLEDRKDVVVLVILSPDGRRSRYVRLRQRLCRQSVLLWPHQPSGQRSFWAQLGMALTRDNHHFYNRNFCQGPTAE

[6] = Unbound fraction in dog blood; format: ADME, tissue-based, Canis lupus familiaris
Intestinal mucosa = test: Antiinflammatory activity in crohn's disease patient derived inflamed intestinal mucosa assessed as reduction in IL1beta production measured after overnight incubation by immunoassay; format: functional, tissue-based; conditions: Homo sapiens
[7] = AUC in Beagle dog assessed as 2-((4-(Benzo[d]thiazol-5-ylamino)-6-(tert-butylsulfonyl)quinazolin-7-yl)oxy)ethanol level at 2 mg/kg, po by LC/MS/MS analysis; format: ADME, organism-based, Canis lupus familiaris; conditions: in vivo
[8] = Volume of distribution at steady state in Beagle dog assessed as 2-((4-(Benzo[d]thiazol-5-ylamino)-6-(tert-butylsulfonyl)quinazolin-7-yl)oxy)ethanol level at 2 mg/kg, po or 0.9 mg/kg, iv by LC/MS/MS analysis; format: ADME, organism-based, Canis lupus familiaris; conditions: in vivo
[9] = Terminal half life in Gottingen minipig assessed as 2-((4-(Benzo[d]thiazol-5-ylamino)-6-(tert-butylsulfonyl)quinazolin-7-yl)oxy)ethanol level at 2 mg/kg, po or 1 mg/kg, iv by LC/MS/MS analysis; format: ADME, organism-based, Sus scrofa; conditions: pig, in vivo
[10] = Half life in rat intestinal S9 fraction; format: ADME, subcellular, Intestine
[11] = Half life in rat blood; format: ADME, tissue-based
[12] = Drug uptake in Beagle dog systemic circulation at 2 mg/kg, po or 0.9 mg/kg, iv by LC/MS/MS analysis; format: ADME, organism-based, Canis lupus familiaris; conditions: in vivo
[13] = Drug uptake in Gottingen minipig systemic circulation at 2 mg/kg, po or 1 mg/kg, iv by LC/MS/MS analysis; format: ADME, organism-based, Sus scrofa; conditions: pig, in vivo
[14] = Prodrug conversion in Han Wistar rat brain assessed as 2-((4-(Benzo[d]thiazol-5-ylamino)-6-(tert-butylsulfonyl)quinazolin-7-yl)oxy)ethanol formation at 2 mg/kg, iv administered as infusion for 4 hrs; format: ADME, organism-based; conditions: in vivo
[15] = Prodrug conversion in minipig hepatocytes assessed as dephosphorylation at 20 uM measured after 4 hrs; format: ADME, cell-based, Sus scrofa, Hepatocyte; conditions: pig
[16] = Prodrug conversion in human hepatocytes assessed as 2-(4-(benzo[d]thiazol-5-ylamino)-6-(tert-butylsulfonyl)quinazolin-7-yloxy)acetic acid formation at 20 uM measured after 4 hrs; format: ADME, cell-based, Hepatocyte
[17] = Prodrug conversion in human hepatocytes assessed as oxidation at 20 uM measured after 4 hrs; format: ADME, cell-based, Hepatocyte
[18] = Prodrug conversion in human hepatocytes assessed as benzothiazole ring opening at 20 uM measured after 4 hrs; format: ADME, cell-based, Hepatocyte
[19] = Prodrug conversion in Sprague-Dawley rat intestine assessed as 2-((4-(Benzo[d]thiazol-5-ylamino)-6-(tert-butylsulfonyl)quinazolin-7-yl)oxy)ethanol formation at 2 mg/kg, po or 0.5 mg/kg, iv measured at 15 to 120 mins post dose; format: ADME, organism-based; conditions: in vivo
[20] = Toxicity in Sprague-Dawley rat during 6 week study; conditions: in vivo, 1008 h

Chain of Vascular endothelial growth factor receptor 2 (Homo sapiens) (P35968 whole entry): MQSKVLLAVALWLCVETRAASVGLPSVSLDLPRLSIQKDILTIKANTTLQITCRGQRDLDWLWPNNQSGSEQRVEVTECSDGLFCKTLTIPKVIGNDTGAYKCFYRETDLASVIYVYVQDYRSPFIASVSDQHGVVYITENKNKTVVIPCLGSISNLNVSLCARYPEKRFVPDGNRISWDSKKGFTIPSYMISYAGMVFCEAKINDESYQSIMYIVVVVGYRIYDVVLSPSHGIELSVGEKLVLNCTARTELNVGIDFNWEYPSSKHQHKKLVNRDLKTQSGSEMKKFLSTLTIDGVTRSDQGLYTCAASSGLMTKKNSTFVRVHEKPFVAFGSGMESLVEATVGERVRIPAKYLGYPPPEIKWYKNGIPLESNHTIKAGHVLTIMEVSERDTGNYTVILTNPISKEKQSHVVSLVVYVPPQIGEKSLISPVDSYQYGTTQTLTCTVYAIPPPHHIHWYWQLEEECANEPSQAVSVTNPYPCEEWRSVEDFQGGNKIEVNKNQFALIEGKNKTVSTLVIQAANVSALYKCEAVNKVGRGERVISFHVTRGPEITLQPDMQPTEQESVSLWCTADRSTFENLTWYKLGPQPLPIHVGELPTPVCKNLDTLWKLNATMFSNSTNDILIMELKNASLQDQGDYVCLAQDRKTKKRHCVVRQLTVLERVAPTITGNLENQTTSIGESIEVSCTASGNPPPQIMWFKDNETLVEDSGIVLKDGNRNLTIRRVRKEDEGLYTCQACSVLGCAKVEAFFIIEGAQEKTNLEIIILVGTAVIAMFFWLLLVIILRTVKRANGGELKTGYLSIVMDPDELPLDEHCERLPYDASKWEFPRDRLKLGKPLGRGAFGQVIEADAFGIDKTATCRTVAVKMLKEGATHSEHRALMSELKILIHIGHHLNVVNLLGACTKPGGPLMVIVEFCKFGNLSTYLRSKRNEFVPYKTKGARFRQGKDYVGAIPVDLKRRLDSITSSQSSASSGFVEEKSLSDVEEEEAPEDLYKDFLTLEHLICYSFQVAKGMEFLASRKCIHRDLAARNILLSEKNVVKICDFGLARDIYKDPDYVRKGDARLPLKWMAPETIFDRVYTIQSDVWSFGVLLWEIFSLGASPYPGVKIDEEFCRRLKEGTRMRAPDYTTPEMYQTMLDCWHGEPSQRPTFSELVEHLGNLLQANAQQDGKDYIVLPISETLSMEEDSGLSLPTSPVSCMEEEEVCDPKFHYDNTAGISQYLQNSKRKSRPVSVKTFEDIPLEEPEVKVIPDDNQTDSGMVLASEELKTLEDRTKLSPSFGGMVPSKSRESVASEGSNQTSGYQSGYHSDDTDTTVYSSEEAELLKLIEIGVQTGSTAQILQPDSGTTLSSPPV

inhibition [1]: 70 to 90%
AUC [2]: 460 ng·h/mL
clearance [3]: 27 mL/min/kg
half-life [4]: 114 min
Papp [5]: 16.6 ×10⁻⁶ cm/s
IC50 (Toll-like receptor 9): > 10000 nM
fraction unbound [6]: 0.089
IC50 (Intestinal mucosa): 10 nM
SMILES: CC(C)(C)S(=O)(=O)c1cc2c(Nc3ccc4scnc4c3)ncnc2cc1OCCO
Activity (Intestinal mucosa): Dose-dependent effect

AUC [7]: 4400 ng·h/mL
Vdss [8]: 2 L/kg
beta t1/2 [9]: 252 min
half-life [10]: 3.3 min
half-life [11]: 35 min
Drug uptake [12]: Not Active
Drug uptake [13]: Not Active
Drug metabolism [14]: Metabolite_Detected
Drug metabolism [15]: Metabolite_Detected
Drug metabolism [16]: Metabolite_Detected
Drug metabolism [17]: Metabolite_Detected
Drug metabolism [18]: Metabolite_Detected
Drug metabolism [19]: Metabolite_Detected
SMILES: CC(C)(C)S(=O)(=O)c1cc2c(Nc3ccc4scnc4c3)ncnc2cc1OCCOP(=O)(O)O.[CaH2]
Activity [20]: Non-Toxic
